In publication PMC3914206:

Target: T1, panel of 442 kinases (Homo sapiens, UniProt O15146)
T1 construct: purchased KINOMEscan
T1 sequence (O15146 24-869): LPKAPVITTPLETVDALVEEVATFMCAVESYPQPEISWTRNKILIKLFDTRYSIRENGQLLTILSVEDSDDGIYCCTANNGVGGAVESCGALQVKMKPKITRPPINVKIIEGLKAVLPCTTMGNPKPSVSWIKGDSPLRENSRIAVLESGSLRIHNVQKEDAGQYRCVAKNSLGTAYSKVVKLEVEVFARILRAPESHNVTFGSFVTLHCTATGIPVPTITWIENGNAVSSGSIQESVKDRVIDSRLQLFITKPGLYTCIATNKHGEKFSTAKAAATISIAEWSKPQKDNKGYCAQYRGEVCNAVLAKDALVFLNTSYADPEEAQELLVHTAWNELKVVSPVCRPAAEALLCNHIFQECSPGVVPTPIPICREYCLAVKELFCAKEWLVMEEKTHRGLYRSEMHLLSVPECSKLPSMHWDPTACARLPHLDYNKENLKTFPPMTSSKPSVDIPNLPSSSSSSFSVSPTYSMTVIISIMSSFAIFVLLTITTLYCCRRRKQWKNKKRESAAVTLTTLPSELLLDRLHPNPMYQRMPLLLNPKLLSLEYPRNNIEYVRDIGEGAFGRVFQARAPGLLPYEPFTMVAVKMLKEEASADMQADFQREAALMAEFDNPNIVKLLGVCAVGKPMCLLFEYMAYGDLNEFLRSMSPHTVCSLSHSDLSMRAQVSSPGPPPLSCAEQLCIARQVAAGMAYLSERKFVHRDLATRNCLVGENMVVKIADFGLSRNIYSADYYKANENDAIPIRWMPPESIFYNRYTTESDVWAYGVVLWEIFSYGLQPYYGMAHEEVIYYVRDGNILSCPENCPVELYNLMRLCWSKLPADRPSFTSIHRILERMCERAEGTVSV
Assay type: binding
Details: Compound Concentration 10 µM
Text: We assessed the selectivity of members of this scaffold using the KINOMEscan methodology across a near comprehensive panel of 442 kinases [[18,27]].

SMILES | KINOMEscan: MUSK
CCOc1cc(C(=O)N2CCC(N3CCN(C)CC3)CC2)ccc1Nc1ncc2c(n1)N(C1CCCC1)c1ccccc1C(=O)N2C [Compound 26] | 100
COc1cc(C(=O)N2CCC(N3CCN(C)CC3)CC2)ccc1Nc1ncc2c(n1)N(C1CCCC1)c1ccccc1C(=O)N2C [Compound 25, 11-cyclopentyl-2-((2-methoxy-4-(4-(4-methylpiperazin-1-yl)piperidine-1-carbonyl)phenyl)amino)-5-methyl-5H-benzo[e]pyrimido[5,4-b][1,4]diazepin-6(11H)-one] | 100
COc1cc(C(=O)N2CCC(N3CCN(C)CC3)CC2)ccc1Nc1ncc2c(n1)N(C)c1ccccc1C(=O)N2C [15 (LRRK2-IN-1)] | 99
